Experimental data: patent US7138361B2, “Herbicidal heterocycles” (E. I. du Pont de Nemours and Company, priority 2000, dated 2006)

How the values were obtained:
Type in all cases: in vivo
[1] = system: Nightshade; test: Test C preemergence
[2] = system: Sunflower; test: Test C preemergence; conditions: Rate 125 g/ha; scale 0 to 100, 0 no effect, 100 complete control
[3] = system: Surinam grass (Brachiaria decumbens); test: Test C preemergence
How it was run: (§1)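 Test chemicals, formulated in a non-phytotoxic solvent mixture with surfactant, were applied preemergence to planted seeds or postemergence to plants 2 to 18 cm tall (1- to 4-leaf stage). After 12 to 14 days in a greenhouse, injury was visually rated against untreated controls on a 0–100 scale.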

[4] = system: bermudagrass (Cynodon dactylon); test: Test C preemergence
How it was run: as §1

[5] = system: cocklebur (Xanthium strumarium); test: Test C preemergence
How it was run: as §1

[6] = system: corn (Zea mays); test: Test C preemergence
How it was run: as §1

[7] = system: crabgrass (Digitaria sanguinalis); test: Test C preemergence
How it was run: as §1

[8] = system: giant foxtail (Setaria faberii); test: Test C preemergence
How it was run: as §1

[9] = system: goosegrass (Eleusine indica); test: Test C preemergence
How it was run: as §1

[10] = system: johnsongrass (Sorghum halepense); test: Test C preemergence
How it was run: as §1

[11] = system: kochia (Kochia scoparia); test: Test C preemergence
How it was run: as §1

[12] = system: lambsquarters (Chenopodium album); test: Test C preemergence
How it was run: as §1

[13] = system: morningglory (Ipomoea hederacea); test: Test C preemergence
How it was run: as §1

[14] = system: pigweed (Amaranthus retroflexus); test: Test C preemergence
How it was run: as §1

[15] = system: soybean (Glycine max); test: Test C preemergence
How it was run: as §1

[16] = system: velvetleaf (Abutilon theophrasti); test: Test C preemergence
How it was run: as §1

[17] = system: woolly cupgrass (Eriochloa villosa); test: Test C preemergence
How it was run: as §1

[18] = system: yellow nutsedge (Cyperus esculentus); test: Test C preemergence
How it was run: as §1

[19] = system: barnyardgrass (Echinochloa crus-galli); test: Test C flooded paddy test; conditions: for Barnyardgrass plant response rating: Flooded Paddy, scale 0 to 100, 0 no effect, 100 complete control; for Plant response rating, Barnyardgrass / Plant response rating (scale 0 to 100), Barnyardgrass: flooded paddy test; for Plant response rating, Barnyardgrass: scale 0 to 100 (0 no effect, 100 complete control)
How it was run: (§2)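 Response on a 0-to-100 scale (no effect to complete control) was assessed by eye versus controls. Plants had reached 2 leaves when treated in flooded paddy conditions. The assessment took place after 12–14 days of greenhouse growth.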

[20] = system: duck salad (Heteranthera limosa); test: Test C flooded paddy test; conditions: for Ducksalad plant response rating: Flooded Paddy, scale 0 to 100, 0 no effect, 100 complete control; for Plant response rating, Ducksalad / Plant response rating (scale 0 to 100), Ducksalad: flooded paddy test; for Plant response rating, Ducksalad: scale 0 to 100 (0 no effect, 100 complete control)
How it was run: as §2

[21] = system: smallflower flatsedge (Cyperus difformis); test: Test C flooded paddy test; conditions: for Flatsedge plant response rating: Flooded Paddy, scale 0 to 100, 0 no effect, 100 complete control; for Plant response rating, Flatsedge / Plant response rating (scale 0 to 100), Flatsedge: flooded paddy test; for Plant response rating, Flatsedge: scale 0 to 100 (0 no effect, 100 complete control)
How it was run: as §2

[22] = system: Sunflower; test: Test C preemergence; conditions: Rate 500 g/ha, visual evaluation after 12 to 14 days
[23] = Rate 125 g/ha, scale 0 to 100, 0 no effect, 100 complete control
[24] = preemergence, Rate 62 g/ha, scale 0 to 100
[25] = preemergence, Rate 500 g/ha, visual evaluation after 12 to 14 days
[26] = preemergence, Rate 250 g/ha, scale 0 to 100, 0 no effect, 100 complete control
[27] = Rate 16 g/ha, visually evaluated after 12 to 14 days, 0 = no effect, 100 = complete control
[28] = under head Rate 16 g/ha, (own rate not given), after 12 to 14 days

**Q.** `CCCC(C)c1ccn(C2OCN(c3cccc(OC(F)(F)F)c3)C2=O)n1` (stereo not drawn) [Compound 91] was tested. Which “Plant response rating, Nightshade” value ([1]; Rate 62 g/ha, scale 0 to 100) did it give?
**A.** 0

**Q.** What about the “Plant response rating, Nightshade” value [1, 23] of the same compound?
**A.** 0

**Q.** And the “Plant response rating, Nightshade” value ([1]; Rate 250 g/ha, scale 0 to 100, 0 no effect, 100 complete control)?
**A.** 0

**Q.** What about the “Plant response rating, Sunflower” value [2] of the same compound?
**A.** 0

**Q.** And the “Plant response rating, Surinam grass” value [3, 23]?
**A.** 30

**Q.** And the “Plant response rating, Surinam grass” value [3, 24]?
**A.** 0

**Q.** What about the “Plant response rating (0 to 100), Surinam grass” value [3, 25] of the same compound?
**A.** 80

**Q.** And the “Plant response rating, Surinam grass” value [3, 26]?
**A.** 30

**Q.** What about the “Plant response rating, Bermudagrass” value [4, 23] of the same compound?
**A.** 100

**Q.** What about the “Plant response rating, Bermudagrass” value [4, 24] of the same compound?
**A.** 10

**Q.** What about the “Plant response rating (0 to 100 where 0 is no effect and 100 is complete control), Bermudagrass” value [4, 25] of the same compound?
**A.** 100

**Q.** What about the “Plant response rating, Bermudagrass” value [4, 26] of the same compound?
**A.** 100

**Q.** What about the “Plant response rating, Cocklebur” value [5, 23] of the same compound?
**A.** 0

**Q.** And the “Plant response rating, Cocklebur” value [5, 24]?
**A.** 0

**Q.** What about the “Plant response rating (0 to 100), Cocklebur” value [5, 25] of the same compound?
**A.** 10

**Q.** And the “Plant response rating, Cocklebur” value [5, 26]?
**A.** 0

**Q.** And the “Plant response rating, Corn” value [6, 23]?
**A.** 0

**Q.** What about the “Plant response rating, Corn” value [6, 24] of the same compound?
**A.** 0

**Q.** What about the “Plant response rating (0 to 100), Corn” value [6, 25] of the same compound?
**A.** 10

**Q.** What about the “Plant response rating, Corn” value [6, 26] of the same compound?
**A.** 10

**Q.** And the “Plant response rating, Crabgrass” value [7, 23]?
**A.** 100

**Q.** And the “Plant response rating, Crabgrass” value [7, 24]?
**A.** 100

**Q.** What about the “Plant response rating (0 to 100), Crabgrass” value [7, 25] of the same compound?
**A.** 100

**Q.** What about the “Plant response rating, Crabgrass” value [7, 26] of the same compound?
**A.** 100

**Q.** And the “Plant response rating, Foxtail, Giant” value [8, 23]?
**A.** 30

**Q.** And the “Plant response rating, Foxtail, Giant” value [8, 24]?
**A.** 10

**Q.** And the “Plant response rating (0 to 100), Foxtail, Giant” value [8, 25]?
**A.** 100

**Q.** What about the “Plant response rating, Foxtail, Giant” value [8, 26] of the same compound?
**A.** 30

**Q.** What about the “Plant response rating, Goosegrass” value [9, 23] of the same compound?
**A.** 100

**Q.** And the “Plant response rating, Goosegrass” value [9, 24]?
**A.** 90

**Q.** And the “Plant response rating (0 to 100), Goosegrass” value [9, 25]?
**A.** 100

**Q.** And the “Plant response rating, Goosegrass” value [9, 26]?
**A.** 100

**Q.** What about the “Plant response rating, Johnsongrass” value [10, 23] of the same compound?
**A.** 80

**Q.** And the “Plant response rating, Johnsongrass” value [10, 24]?
**A.** 20

**Q.** What about the “Plant response rating (0 to 100), Johnsongrass” value [10, 25] of the same compound?
**A.** 100

**Q.** What about the “Plant response rating, Johnsongrass” value [10, 26] of the same compound?
**A.** 90

**Q.** What about the “Plant response rating, Kochia” value [11, 23] of the same compound?
**A.** 90

**Q.** And the “Plant response rating, Kochia” value [11, 24]?
**A.** 20

**Q.** And the “Plant response rating (0 to 100), Kochia” value [11, 25]?
**A.** 100

**Q.** And the “Plant response rating, Kochia” value [11, 26]?
**A.** 90

**Q.** And the “Plant response rating, Lambsquarters” value [12, 23]?
**A.** 100

**Q.** And the “Plant response rating, Lambsquarters” value [12, 24]?
**A.** 90

**Q.** What about the “Plant response rating (0 to 100), Lambsquarters” value [12, 25] of the same compound?
**A.** 100

**Q.** And the “Plant response rating, Lambsquarters” value [12, 26]?
**A.** 100

**Q.** And the “Plant response rating, Morningglory” value [13, 23]?
**A.** 0

**Q.** And the “Plant response rating, Morningglory” value [13, 24]?
**A.** 0

**Q.** And the “Plant response rating (0 to 100), Morningglory” value [13, 25]?
**A.** 0

**Q.** What about the “Plant response rating, Morningglory” value [13, 26] of the same compound?
**A.** 0

**Q.** What about the “Plant response rating, Pigweed” value [14, 23] of the same compound?
**A.** 0

**Q.** What about the “Plant response rating, Pigweed” value [14, 24] of the same compound?
**A.** 0

**Q.** What about the “Plant response rating (0 to 100), Pigweed” value [14, 25] of the same compound?
**A.** 100

**Q.** And the “Plant response rating, Pigweed” value [14, 26]?
**A.** 0

**Q.** What about the “Plant response rating, Soybean” value [15, 23] of the same compound?
**A.** 0

**Q.** And the “Plant response rating, Soybean” value [15, 24]?
**A.** 0

**Q.** What about the “Plant response rating (0 to 100), Soybean” value [15, 25] of the same compound?
**A.** 0

**Q.** And the “Plant response rating, Soybean” value [15, 26]?
**A.** 0

**Q.** What about the “Plant response rating, Velvetleaf” value [16, 23] of the same compound?
**A.** 0

**Q.** What about the “Plant response rating, Velvetleaf” value [16, 24] of the same compound?
**A.** 0

**Q.** And the “Plant response rating (0 to 100), Velvetleaf” value [16, 25]?
**A.** 0

**Q.** What about the “Plant response rating, Velvetleaf” value [16, 26] of the same compound?
**A.** 0

**Q.** And the “Plant response rating, Cupgrass, Woolly” value [17, 23]?
**A.** 70

**Q.** What about the “Plant response rating, Cupgrass, Woolly” value [17, 24] of the same compound?
**A.** 10

**Q.** What about the “Plant response rating (0 to 100), Cupgrass, Woolly” value [17, 25] of the same compound?
**A.** 100

**Q.** And the “Plant response rating, Cupgrass, Woolly” value [17, 26]?
**A.** 90

**Q.** What about the “Plant response rating, Nutsedge” value [18, 23] of the same compound?
**A.** 0

**Q.** What about the “Plant response rating, Nutsedge” value [18, 24] of the same compound?
**A.** 0

**Q.** And the “Plant response rating (0 to 100), Nutsedge” value [18, 25]?
**A.** 0

**Q.** And the “Plant response rating, Nutsedge” value [18, 26]?
**A.** 0

**Q.** And the “Barnyardgrass plant response rating” value ([19]; Rate 250 g/ha)?
**A.** 100

**Q.** And the “Barnyardgrass plant response rating” value ([19]; Rate 500 g/ha)?
**A.** 100

**Q.** And the “Plant response rating, Barnyardgrass” value ([19]; Rate 62 g/ha)?
**A.** 0

**Q.** What about the “Plant response rating, Barnyardgrass” value ([19]; Rate 125 g/ha) of the same compound?
**A.** 50

**Q.** What about the “Plant response rating (scale 0 to 100), Barnyardgrass” value [19, 27] of the same compound?
**A.** 0

**Q.** What about the “Plant response rating (scale 0 to 100), Barnyardgrass” value [19, 28] of the same compound?
**A.** 0

**Q.** What about the “Ducksalad plant response rating” value ([20]; Rate 250 g/ha) of the same compound?
**A.** 90

**Q.** And the “Ducksalad plant response rating” value ([20]; Rate 500 g/ha)?
**A.** 70

**Q.** What about the “Plant response rating, Ducksalad” value ([20]; Rate 62 g/ha) of the same compound?
**A.** 80

**Q.** And the “Plant response rating, Ducksalad” value ([20]; Rate 125 g/ha)?
**A.** 0

**Q.** What about the “Plant response rating (scale 0 to 100), Ducksalad” value [20, 27] of the same compound?
**A.** 0

**Q.** And the “Plant response rating (scale 0 to 100), Ducksalad” value [20, 28]?
**A.** 0

**Q.** And the “Flatsedge plant response rating” value ([21]; Rate 250 g/ha)?
**A.** 100

**Q.** What about the “Flatsedge plant response rating” value ([21]; Rate 500 g/ha) of the same compound?
**A.** 100

**Q.** What about the “Plant response rating, Flatsedge” value ([21]; Rate 62 g/ha) of the same compound?
**A.** 0

**Q.** What about the “Plant response rating, Flatsedge” value ([21]; Rate 125 g/ha) of the same compound?
**A.** 70

**Q.** And the “Plant response rating (scale 0 to 100), Flatsedge” value [21, 27]?
**A.** 0

**Q.** What about the “Plant response rating (scale 0 to 100), Flatsedge” value [21, 28] of the same compound?
**A.** 0

**Q.** And the “Plant response rating (0 to 100), Sunflower” value [22]?
**A.** 10
